# Key:
# [1] = test system: pain in dogs with chronic osteoarthritis; conditions: cited from earlier work
# [2] = cited from earlier work
# [3] = Adverse effect on kidneys; conditions: in vivo
# [4] = Dissolution of TT001 in I.V. formulation vehicle; format: physicochemical; conditions: 0.1 to 10 mg/ml in 40% w/v HPβCD solution in water for injection; a couple of hours for complete dissolution
# Experimental: Formulation Method for the Preparation of TT001 for I.V. Dosing, 0.1 to 10 mg/ml
# The formulation method is applicable at concentrations in formulation between 0.1 and 10 mg/mL corresponding to 0.262 and 26.2 μmol/mL
# Preparation of 40% w/v HPβCD solution in water for injection
# Excipients Hydroxypropyl-β-cyclodextrin, Kleptose, Roquette (HPβCD) 400 mg (40% w/v)
# Water for injection to 1 ml (1.13 g)
# Preparation of TT001 I.V. formulations between 0.1 and 10 mg/ml
# Vehicle (40% w/v HPβCD solution in water for injection) to 1 ml (1.13 g)
SMILES,pain killer effect in dogs [1],"effect on TLESR/reflux ([2]; high dose of 13 mg (about 0.19 mg/kg), 2 to 3 hours after food-intake)",side effects ([2]; high doses of 13 mg),effect on reflux ([2]; prior to food intake and at 1-2 hours after food intake),adverse effect on kidneys [3],dissolution [4]
COc1cccc(C2(O)CCCCC2CN(C)C)c1 (stereo not drawn) [Tramadol],do not occur,,,,,
"C[C@@H](Oc1nnc(-c2ccncc2)n1C)c1cc(-c2cccc(Cl)c2)on1 [TT001, 4-[5-[(1R)-1-[5-(3-Chlorophenyl)-3-isoxazolyl]ethoxy]-4-methyl-4H-1,2,4-triazol-3-yl]pyridine]",,some effect,Some serious side effects,no significant effect,not shown any adverse effect on kidneys,moderate
